Assay results from patent US20110033397A1, “Anti-Aging Compositions Comprising Menyanthes Trifoliata Leaf Extracts And Methods Of Use Thereof” (priority 2006, published 2011).
pIC50: −log10 of the molar value. Where two headings read alike, the source gives them in different places.

Tests used:
Type in all cases: biochemical
[1] = target: T1, Recombinant human MMP-1 enzyme (Homo sapiens, UniProt P03956); assay: In vitro inhibition of MMP-1 activity; settings: for in vitro MMP-1 inhibition activity, in words: summary of Tables 2 and 4; for IC50: selected standards, Table 4, read-out: inhibition expressed as IC50 against MMP-1 (converted)
T1 construct: purchased
T1 sequence (P03956 100-469): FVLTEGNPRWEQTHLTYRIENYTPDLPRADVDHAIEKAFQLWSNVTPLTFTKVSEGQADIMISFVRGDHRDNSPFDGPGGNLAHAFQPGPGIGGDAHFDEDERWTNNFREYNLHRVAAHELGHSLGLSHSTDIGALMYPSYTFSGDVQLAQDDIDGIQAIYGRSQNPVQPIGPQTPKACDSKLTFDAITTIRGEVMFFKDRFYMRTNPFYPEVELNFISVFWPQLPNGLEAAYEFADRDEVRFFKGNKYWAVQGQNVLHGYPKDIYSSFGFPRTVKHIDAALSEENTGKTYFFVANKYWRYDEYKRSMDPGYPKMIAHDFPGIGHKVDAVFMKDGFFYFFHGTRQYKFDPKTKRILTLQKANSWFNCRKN
From the text: In vitro specific inhibition of MMP-2 and MMP-9 activity was estimated with assay kits from Biomol®. Recombinant human MMP-1 enzyme may be obtained from any commercially available source. […] Therefore, a lower value indicates a stronger MMP inhibition.
In vitro specific inhibition of MMP-2 and MMP-9 activity is estimated with assay kits from Biomol®. Recombinant human MMP-1 enzyme is obtained from any commercially available source.

MMP-2 = target: T2, MMP-2 (Homo sapiens, UniProt P08253); assay: In vitro specific inhibition of MMP-2 activity (Biomol assay kit); settings: for IC50: selected standards, Table 4, read-out: inhibition expressed as IC50 against MMP-2 (converted); for in vitro MMP-2 inhibition activity, in words: summary of Tables 2 and 4
T2 construct: purchased Biomol
T2 sequence (P08253 110-446 limits assumed): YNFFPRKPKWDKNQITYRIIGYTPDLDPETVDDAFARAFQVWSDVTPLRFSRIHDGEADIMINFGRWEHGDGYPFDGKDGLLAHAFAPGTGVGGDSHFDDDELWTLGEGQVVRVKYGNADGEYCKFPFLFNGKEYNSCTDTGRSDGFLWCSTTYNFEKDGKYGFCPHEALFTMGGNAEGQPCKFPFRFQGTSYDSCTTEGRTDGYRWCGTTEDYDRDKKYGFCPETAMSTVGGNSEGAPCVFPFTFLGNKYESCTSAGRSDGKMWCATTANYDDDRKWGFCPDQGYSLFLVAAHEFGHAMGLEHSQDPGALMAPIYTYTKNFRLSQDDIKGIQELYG
Experimental: (§1) Several extracts and sub-fractions from the leaves of Menyanthes trifoliata were prepared by liquid-liquid partitioning and fractionation on a Sephadex LH20 gel filtration column (see example 1) and evaluated for specific anti-MMP activity. In vitro specific inhibition of MMP-2 and MMP-9 activity was estimated with assay kits from Biomol®. Recombinant human MMP-1 enzyme may be obtained from any commercially available source. […] Therefore, a lower value indicates a stronger MMP inhibition.
(§2) To further understand which agents may be contributing to the MMP-1, 2, 9 inhibition activity, standards of the different phenol acids, flavonoids and coumarins, identified in Menyanthes trifoliata extracts, were tested for their in vitro inhibition of MMPs-1, 2 and 9. In vitro specific inhibition of MMP-2 and MMP-9 activity is estimated with assay kits from Biomol®. Recombinant human MMP-1 enzyme is obtained from any commercially available source.

MMP-9 = target: T3, MMP-9 (Homo sapiens, UniProt P14780); assay: In vitro specific inhibition of MMP-9 activity (Biomol assay kit); settings: for IC50: selected standards, Table 4, read-out: inhibition expressed as IC50 against MMP-9 (converted); for in vitro MMP-9 inhibition activity, in words: summary of Tables 2 and 4
T3 construct: purchased Biomol
T3 sequence (P14780 107-444 limits assumed): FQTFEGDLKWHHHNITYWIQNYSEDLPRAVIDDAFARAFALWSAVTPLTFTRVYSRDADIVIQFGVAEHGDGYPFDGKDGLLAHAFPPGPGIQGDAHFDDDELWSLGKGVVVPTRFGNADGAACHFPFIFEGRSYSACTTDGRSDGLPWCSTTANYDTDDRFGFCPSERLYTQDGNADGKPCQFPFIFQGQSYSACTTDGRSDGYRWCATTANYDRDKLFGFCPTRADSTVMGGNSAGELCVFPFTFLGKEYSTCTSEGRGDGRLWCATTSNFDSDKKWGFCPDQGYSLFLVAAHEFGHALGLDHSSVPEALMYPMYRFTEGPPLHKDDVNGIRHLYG
Experimental: as §1, §2

[2] = Peroxynitrite scavenging (ABEL peroxynitrite antioxidant test kit with Pholasin); settings: summary of Table 6
Experimental: Assay was performed with the ABEL® peroxynitrite antioxidant test kit with Pholasin®. Standards of different phenolic acids and flavonoids, identified in […] trifoliata extracts, were tested for their in vitro peroxynitrite scavenging activity. Assay was performed with the ABEL® peroxynitrite antioxidant test kit with Pholasin®.

SMILES | in vitro MMP-1 inhibition activity, in words [1] | in vitro MMP-2 inhibition activity, in words (MMP-2) | in vitro MMP-9 inhibition activity, in words (MMP-9) | IC50 [1] | pIC50 [1] | IC50 (MMP-2) | IC50 (MMP-9) | peroxynitrite scavenging activity, in words [2]
O=c1c(O[C@@H]2O[C@H](CO)[C@@H](O)[C@H](O)[C@H]2O)c(-c2ccc(O)c(O)c2)oc2cc(O)cc(O)c12 [Iso-quercitrin] | – | – | – | – | 4.31 | 21.5 µM | 198 µM | –
O=C(O)c1ccc(O)c(O)c1 [Protocatechuic acid] | – | – | – | – | – | – | – | strong
O=c1c(O)c(-c2ccc(O)c(O)c2)oc2cc(O)cc(O)c12 [Quercetin] | strong | strong | strong | – | – | 33.1 µM | 62.9 µM | strong
C[C@@H]1O[C@@H](OC[C@H]2O[C@@H](Oc3c(-c4ccc(O)c(O)c4)oc4cc(O)cc(O)c4c3=O)[C@H](O)[C@@H](O)[C@@H]2O)[C@H](O)[C@H](O)[C@H]1O [Rutin] | – | – | – | 65.5 µM | – | 45.9 µM | 70.4 µM | –

Continued, in another order:

in vitro MMP-1 inhibition activity, in words [1] | in vitro MMP-2 inhibition activity, in words (MMP-2) | in vitro MMP-9 inhibition activity, in words (MMP-9) | IC50 [1] | SMILES | pIC50 [1] | IC50 (MMP-2) | IC50 (MMP-9) | peroxynitrite scavenging activity, in words [2]
strong | strong | strong | 72.7 µM | COc1cc2ccc(=O)oc2cc1OC [Scoparone] | – | 87.3 µM | 48.5 µM | –
strong | strong | strong | 78.1 µM | COc1cc2ccc(=O)oc2cc1O [Scopoletin] | – | 93.7 µM | 130 µM | –
strong | strong | strong | 144 µM | COc1cc(/C=C/C(=O)O)ccc1O [ferulic acid] | – | 113 µM | 103 µM | strong
not | – | not | – | O=C(O)c1ccc(O)cc1 [p-hydroxy-benzoic acid] | – | – | – | –
